We go through two molecules from patent US20210085630A1, “PHARMACEUTICAL COMPOSITION AND USE THEREOF IN PREPARING DRUG FOR TREATING TUMOR MULTI-DRUG RESISTANCE” (SICHUAN JIUZHANG BIOLOGICAL SCIENCE AND TECHNOLOGY CO., LTD., priority 2018, published 2021).

The subject of series [1] is drug-resistant A375 melanoma cell lines. The experiment in a line: MTT: non-cytotoxic concentration of test drugs, drug-resistant A375. The format is cell-based, human. Particulars: 48 h. On the procedure: The culture and treatment methods of cells and drug-resistant cells were the same as above.
For the experiment, there were eight groups: blank group, control group and test-drug groups. […] The plates were placed in an incubator and incubated for 48 h, then 5 mg/ml MTT (20 μl) was added to each well, and the plate was further incubated for 4 h.

The subject of series [2] is multi-drug resistant Lewis lung cancer. Put plainly: Tumor weight and inhibition rate, transplanted multi-drug resistant Lewis lung cancer. The following applies: multi-drug resistant Lewis lung cancer mice; test drug 30 mg/kg i.p. 5 days, then gemcitabine 300 mg/kg or dacarbazine 60 mg/kg every other day. The format is in vivo, mice. On the procedure:
Lewis lung cancer cell lines were induced by the increased gradient concentration of dacarbazine and gemcitabine, and established by clone screening, then cultured without drug before the experiment.
(§1) After the drug was removed from the drug-resistant cell lines, the cell concentration was adjusted to 1×10^7/ml with the culture medium. 1×10^7/ml of cells were subcutaneously injected into the right armpit of mice, 0.1 ml per mouse.
(§2) After the average diameter of tumor reached […], the mice were randomly divided into test drug group 1, test drug group 2, test drug group 3, test drug group 4, test drug group 5, test drug group 6, positive drug group, and negative group, respectively.
(§3) Test drug group: the test drug group was first intraperitoneally injected, once a day, 30 mg/kg/time, for 5 consecutive days; administration was stopped, and the positive drug was given by intraperitoneal injection on the next day; wherein the positive drug dacarbazine was administrated once every other day, 60 mg/kg/time; wherein the positive drug gemcitabine was given once every other day, 300 mg/kg/time.
(§4) Positive drug group: positive drug dacarbazine was given once every other day, 60 mg/kg/time; positive drug gemcitabine was given once every other day, 300 mg/kg/time.
(§5) Negative group: normal saline was intraperitoneally injected, once a day, for 15 consecutive days.
(§6) After completion of administration, the experiment was stopped, and the mice were killed by cervical dislocation and weighed. The tumor was stripped and weighed, to calculate the tumor inhibition rate.

Series [3] deals with CD4+T and CD8+T lymphocytes. The experiment in a line: Number of CD4+T and CD8+T cells in Opdivo-resistant Lewis lung cancer mice. The series is classed as in vivo. Particulars: drug-resistant (Opdivo) Lewis lung cancer mice, average of 6 high power fields. On the procedure: (§7) The number of CD4+T and CD8+T lymphocytes was analyzed by immunofluorescence staining, and the average number of CD4+T and CD8+T cells infiltrated in 6 high power fields was counted.

Series [4] concerns PD-1/PD-L1. Put plainly: PD-1/PD-L1 expression rate in transplanted tumor tissues, multidrug resistance model. Particulars: transplanted tumor tissues of B16 melanoma mice with multidrug resistance (as titled), Example 5 regimen. The format is in vivo. The text has this: (§8) The positive expression rate of PD-1/PD-L1 in tumor tissues was detected by immunohistochemical SP method.

In series [5] the test system is drug-resistant A375 melanoma cell lines. The experiment in a line: Reversal of dacarbazine resistance in drug-resistant A375 cells (MTT). Particulars: test drug 30 μg/ml; for Reversal index: IC50 before reversal/IC50 after reversal, drug-resistant A375. The series is classed as cell-based, human. On the procedure:
The culture and experimental methods of cells were the same as above.
In the experiment, there are following groups: drug-resistant cell negative group, drug-resistant cells+test drug group 1 (30 μg/ml), drug-resistant cells+test drug group 2 (30 μg/ml), drug-resistant cells+test drug group 3 ([…]), drug-resistant cells+test drug group 4 (30 μg/ml), drug-resistant cells+test drug group 5 (30 μg/ml), drug-resistant cells+test drug group 6 (30 μg/ml).
Each test drug group was added with different concentrations of dacarbazine, each concentration including 3 replicate wells, and the OD value of each well was measured, to observe whether the cytotoxicity was shown. Each test drug and dacarbazine were respectively used to act on drug resistant cells, so as to compare with the effects of dacarbazine administrated alone on drug-resistant cells, and the IC50 value of dacarbazine against drug-resistant cell lines was calculated, as well as the IC50 value of each test drug after reversing drug-resistant cell lines.
Reversal index=IC50 value before reversal/IC50 value after reversal.

Series [6] has as its system dacarbazine-resistant B16 melanoma. The experiment in a line: Tumor weight and inhibition rate, transplanted dacarbazine-resistant B16 melanoma. The format is in vivo. The following applies: dacarbazine-resistant B16 melanoma mice; test drug 30 mg/kg i.p. once a day 5 days, then dacarbazine 60 mg/kg every other day; positive drug dacarbazine 60 mg/kg. On the procedure: B16 melanoma cell lines were induced by the increased gradient concentration of dacarbazine, and established by clone screening and cultured without drug before the experiment.
as §1, §2, §3, §4, §5, §6

Series [7] has as its system CD4+T and CD8+T lymphocytes. Put plainly: Number of CD4+T and CD8+T cells (immunofluorescence), drug-resistant B16 melanoma transplanted tumor. Particulars: transplanted tumor of drug-resistant B16 melanoma in mice, average of 6 high power fields. The series is classed as in vivo. As for the experimental part: as §7
The subject of series [8] is CD4+T and CD8+T lymphocytes. Put plainly: Number of CD4+T and CD8+T cells (immunofluorescence), drug-resistant Lewis lung cancer transplanted tumor. The series is classed as in vivo. Particulars: transplanted tumor of drug-resistant Lewis lung cancer in mice, average of 6 high power fields. As for the experimental part: as §7
Series [9] deals with CD4+T and CD8+T lymphocytes. The experiment in a line: Number of CD4+T and CD8+T cells in Opdivo-resistant B16 melanoma mice. The format is in vivo. The following applies: drug-resistant (Opdivo) B16 melanoma mice, average of 6 high power fields. As for the experimental part: as §7
Series [10] deals with PD-1/PD-L1. Put plainly: PD-1/PD-L1 expression rate in tumor tissues of Opdivo-resistant Lewis lung cancer mice. Particulars: tumor tissues of drug-resistant (Opdivo) Lewis lung cancer mice. The format is in vivo.
Text: as §8

Series [11] relates to PD-1/PD-L1. Put plainly: PD-1/PD-L1 expression rate (immunohistochemical SP method), drug-resistant B16 melanoma tumor tissue. The series is classed as in vivo. The following applies: transplanted tumor tissues of drug-resistant B16 melanoma in mice, Example 3 regimen.
Text: as §8

The subject of series [12] is drug-resistant A549 lung cancer cell lines. Put plainly: Reversal of gemcitabine resistance in drug-resistant A549 cells (MTT). The series is classed as cell-based, human. Particulars: test drug 30 μg/ml; for Reversal index: IC50 before reversal/IC50 after reversal, drug-resistant A549. On the procedure: The culture and experimental methods of cells were the same as above. In the experiment, there are following groups: drug-resistant cell negative group, drug-resistant cells+test drug group 1 (30 μg/ml), drug-resistant cells+test drug group 2 (30 μg/ml), drug-resistant cells+test drug group 3 (30 μg/ml), drug-resistant cells+test drug group 4 (30 μg/ml), drug-resistant cells+test drug group 5 (30 μg/ml), drug-resistant cells+test drug group 6 (30 μg/ml). Each test drug group was respectively added with different concentrations of gemcitabine, each concentration including 3 replicate wells, and the OD value of each well was measured, to observe whether the cytotoxicity was shown. Each test drug and gemcitabine were respectively used to act on drug resistant cells, so as to compare with the effects of gemcitabine administrated alone on drug-resistant cells, and the IC50 value of gemcitabine against drug-resistant cell lines was calculated, as well as the IC50 value of each test drug after reversing drug-resistant cell lines. Reversal index=IC50 value before reversal/IC50 value after reversal.

With `O=C(/C=C/c1ccc(O)cc1)O[C@@H]1C[C@](O)(C(=O)O)C[C@@H](O)[C@H]1O` [Coumaroylquinic acid, coumaroylquinic acid], in [1], the “Non-cytotoxic concentration (all inhibition rates <10%)” value turned out to be 862 µg/mL. For the same molecule, the “Tumor weight” value in series [2] came out at 2.15 ± 0.72 g; in [6], 2.22 ± 0.26 g. The “Tumor-inhibition rate (%)” value in [2] worked out at 8.90%. Also, the “CD4 + T cells (number)” value is given as 65.12 ± 5.17 in series [3], 62.83 ± 7.51 in series [7], 78.75 ± 6.39 in series [8] and 75.09 ± 5.23 in series [9]. The “CD8 + T cells (number)” value stood at 113.64 ± 8.23 in series [3], 91.53 ± 3.54 in series [7], 98.53 ± 4.98 in series [8] and 88.26 ± 5.36 in series [9]. Further, the “Expression rate of PD-1/PD-L1, Positive PD-L1” value in [4] is 73.39%; in series [10], 71.89%; in [11] it was 73.39%. Moreover, the Reversal index in series [5] is 1.06; in series [12], 1.10. In [5], the “reversal effect on the drug-resistant A375 cell lines (in words)” value is on record as “no significant reversal effect”. For the same molecule, the “Tumor inhibition rate (%)” value in series [6] is reported as 15.91%. Besides, in series [12], the “reversal effect on the drug-resistant A549 cell lines (in words)” value was “no significant reversal effect”.

With `O=C(/C=C/c1ccc(O)c(O)c1)O[C@@H]1C[C@](O)(C(=O)O)C[C@@H](O)[C@H]1O` [Chlorogenic acid, chlorogenic acid], the “Non-cytotoxic concentration (all inhibition rates <10%)” value in series [1] came out at 830 µg/mL. For the same molecule, the “Tumor weight” value in series [2] is 1.92 ± 0.69 g. The “Tumor-inhibition rate (%)” value in series [2] is 18.64%. The “CD4 + T cells (number)” value in series [3] is 66.52 ± 4.63; in series [7] it was 69.43 ± 4.72; in series [8], 80.63 ± 5.08; in series [9], 74.63 ± 6.35. The “CD8 + T cells (number)” value in series [3] stood at 119.38 ± 6.55; in series [7] it was 88.62 ± 5.38; in [8], 106.62 ± 6.88; in [9] it was 89.42 ± 2.52. Besides, the figures for the “Expression rate of PD-1/PD-L1, Positive PD-L1” value in series [4], in series [10] and in series [11] were 72.26%, 70.36% and 72.26%, respectively. The Reversal index is on record as 1.17 in [5] and 1.13 in series [12]. Also, the “reversal effect on the drug-resistant A375 cell lines (in words)” value in series [5] is listed as “no significant reversal effect”. Further, in series [6], the “Tumor inhibition rate (%)” value is 19.32%. In addition, the “Tumor weight (g)” value in series [6] is 2.13 ± 0.52*Δ g. The “reversal effect on the drug-resistant A549 cell lines (in words)” value in [12] is given as “no significant reversal effect”.
